Measurements from US10919896B2, “Preparation and uses of pyrimidinone derivatives” (Cancer Research Technology Limited, priority 2016, dated 2021).
Where a name gives a salt, the structure may show the parent alone.

What follows are molecules tested against Cdc7/ASK (Homo sapiens, UniProt O00311) (assay: Cdc7 Biochemical Assay Method 1: 384 well ELISA, whole protein substrate MCM2, antibody against Phospho MCM2 (S53)). Conditions: 2 μM ATP, read-out: Biochemical Method 1 (pIC50) (converted).
Design: purchased
Description: This protocol describes a method for assaying Cdc7/ASK for activity. The assay is a 384 well ELISA assay, utilising a whole protein substrate (MCM2) and an antibody against Phospho MCM2 (S53). This site is thought to be specific to Cdc7/ASK phosphorylation and the assay has been validated using knockout mutants. Reagents • TBS: 25 mM Tris pH 7.2, 150 mM NaCl. (Dilute 10× stock by 1:10). • Wash Buffer: TBS+0.05% Tween 20. (Add 100 mL 1 M Tris pH 7.2, 120 mL 5 M NaCl and 2 mL 100% Tween 20 per 4 L). • Kinase Reaction Buffer: 50 mM Tris-HCl pH 8.5, 10 mM MgCl2, 1 mM DTT. (Dilute 10× stock by 1:10 and add 100 μL 1M DTT per 100 mL prior to assay). • Diethanolamine Buffer: 1 M diethanolamine pH 9.8, 0.5 mM MgCl2. • Stop Solution: 1 M NaOH. • MCM2 was expressed and purified in-house and used in the assay at a final assay concentration of 436 ng/well. • Cdc7/ASK is purchased from commercial suppliers and used in the assay at a final assay concentration of 37.97 ng/well or 20.63 nM. • ATP used as a final assay concentration of 2 μM. • Primary Antibody: Rabbit anti-Phospho MCM2 (S53 Antibody (BL3353)), is purchased from commercial suppliers at 0.2 mg/mL and used at a final assay concentration by diluting 1:800 in TBS. • Secondary Antibody: Anti-Rabbit/AP Antibody is supplied is purchased from commercial suppliers at 1 mg/mL and used at a final assay concentration by diluting 1:2000 in TBS. • Development Reagent: Dissolve one 20 mg PNPP tablet (Sigma, product […], 20 mg per tablet) per 20 mL diethanolamine Buffer (or one 5 mg PNPP tablet per 5 mL diethanolamine buffer). Cover in foil and leave shaking on a roller shaker at room temperature for up to an hour to dissolve. Methods • 1. Add 20 μL 1× working stock of Substrate (MCM2) in TBS to all wells of a clear, 384 well, Nickel-chelate microplate to give a final concentration of […]. Incubate at room temperature for at least 1 hour. Plates can be pre-coated for 1 hour and stored at 4° C. for up to 8 days. • 2. Wash with TBS+0.05% Tween 20 (80 μL×3). • 3. Add 2 μL 10× test compounds, including the positive control, in 40% DMSO/water to 'test' wells. Add 2 μL 40% DMSO/water to 'control' and 'blank' wells. The final DMSO concentration will be 4%. • 4. Add 13 μL CDC7/ASK Kinase (1.5× stock) in Kinase Reaction Buffer to 'test' and 'control' wells to give a final concentration of […]. Add 13 μL Kinase Reaction Buffer to 'blank' wells. • 5. Add 5 μL ATP (4× stock) in Kinase Reaction Buffer to all wells to give a final concentration of 2 μM. • 6. Incubate at room temperature for 90 minutes. • 7. Wash with TBS+0.05% Tween 20 (80 μL×3). • 8. Add 20 μL 1× working solution of Primary Antibody in TBS to all wells. Incubate at room temperature for 30 minutes. • 9. Wash with TBS+0.05% Tween 20 (80 μL×3). • 10. Add 20 μL 1× working solution of Secondary Antibody in TBS to all wells. Incubate at room temperature for 30 minutes. • 11. Wash with TBS+0.05% Tween 20 (80 μL×3). • 12. Add 20 μL 1× Development Reagent to all wells. • 13. Incubate at room temperature for 2 hours. Stop the reaction by adding 20 μL Stop Solution to all wells and record Absorbance on a Pherastar plate reader. Percentage inhibition values were calculated from absorbance values, using the no compound (DMSO) and no enzyme control values as 0% and 100% inhibition, respectively. IC50 determination was performed with ExcelFit software (IDBS) using curve fit 205. Z' factors were determined for each plate tested and were all above 0.5. Method 2

Chain of Cdc7/ASK (O00311 whole entry): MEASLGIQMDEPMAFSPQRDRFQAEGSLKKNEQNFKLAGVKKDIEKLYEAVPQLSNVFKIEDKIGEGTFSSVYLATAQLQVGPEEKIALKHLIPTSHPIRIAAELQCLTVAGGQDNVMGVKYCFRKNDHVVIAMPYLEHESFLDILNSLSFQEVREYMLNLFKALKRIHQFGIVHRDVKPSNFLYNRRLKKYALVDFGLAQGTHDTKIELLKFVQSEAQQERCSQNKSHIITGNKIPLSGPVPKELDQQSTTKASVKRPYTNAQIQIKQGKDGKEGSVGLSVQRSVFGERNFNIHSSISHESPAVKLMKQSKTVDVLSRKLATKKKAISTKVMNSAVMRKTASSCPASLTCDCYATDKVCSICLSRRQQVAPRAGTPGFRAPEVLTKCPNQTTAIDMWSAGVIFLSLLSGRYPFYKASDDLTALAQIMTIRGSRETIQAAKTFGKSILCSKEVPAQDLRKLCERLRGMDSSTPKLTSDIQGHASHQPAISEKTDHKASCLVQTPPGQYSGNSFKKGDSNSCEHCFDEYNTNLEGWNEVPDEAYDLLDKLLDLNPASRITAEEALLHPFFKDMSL
Chain of Cdc7/ASK (Q9UBU7 whole entry partner): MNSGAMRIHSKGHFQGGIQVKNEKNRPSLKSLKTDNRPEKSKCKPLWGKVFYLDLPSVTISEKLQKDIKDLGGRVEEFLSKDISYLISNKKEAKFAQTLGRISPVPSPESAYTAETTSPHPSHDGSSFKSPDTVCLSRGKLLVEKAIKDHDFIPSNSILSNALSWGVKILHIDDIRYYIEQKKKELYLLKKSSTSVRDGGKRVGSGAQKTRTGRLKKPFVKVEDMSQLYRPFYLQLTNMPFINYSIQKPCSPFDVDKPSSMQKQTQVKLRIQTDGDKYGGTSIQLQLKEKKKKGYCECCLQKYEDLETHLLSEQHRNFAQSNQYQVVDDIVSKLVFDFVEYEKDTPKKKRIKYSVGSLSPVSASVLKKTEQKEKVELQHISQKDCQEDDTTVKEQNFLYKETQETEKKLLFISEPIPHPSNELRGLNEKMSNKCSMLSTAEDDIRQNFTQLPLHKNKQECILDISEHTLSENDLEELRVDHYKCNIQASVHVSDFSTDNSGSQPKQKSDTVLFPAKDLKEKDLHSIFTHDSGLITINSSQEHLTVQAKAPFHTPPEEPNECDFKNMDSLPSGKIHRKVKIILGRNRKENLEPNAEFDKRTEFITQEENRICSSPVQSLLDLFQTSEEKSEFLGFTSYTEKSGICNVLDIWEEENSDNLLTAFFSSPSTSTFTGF

IC50 [nM] | SMILES
100 | CC(C)(C)OC(=O)N1CCN(c2nc(-c3ccncc3)[nH]c(=O)c2Cl)CC1 [Compound 32]
123 | CC(C)C1CC(c2nc(-c3ccncc3)[nH]c(=O)c2Cl)CCO1 (centres unmarked) [Compound 14]
589 | CC(C)(C)N1CCCN(c2nc(-c3ccncc3)[nH]c(=O)c2Cl)CC1 [Compound 137]
70.8 | CC(C)(C)OC(=O)N1CCC(c2nc(-c3ccncc3)[nH]c(=O)c2Cl)CC1 [Compound 1, tert-Butyl 4-[5-chloro-6-oxo-2-(4-pyridyl)-1H-pyrimidin-4-yl]piperidine-1-carboxylate]
57.5 | O=c1[nH]c(-c2ccncc2)nc(N2CCN[C@@H](CCO)C2)c1Cl [Compound 175]
1.51 | O=c1[nH]c(-c2ccncc2)nc(C2(F)CCNCC2)c1Cl [Compound 21]
6.17 | COc1ccc(S(N)(=O)=O)cc1C(=O)N1CCC(c2nc(-c3ccncc3)[nH]c(=O)c2Cl)CC1 [Compound 61]
245 | CCCC(NC(=O)OC(C)(C)C)C(=O)N1CCC(c2nc(-c3ccncc3)[nH]c(=O)c2Cl)CC1 (centres unmarked) [Compound 74]
3.39 | CC1(c2nc(-c3ccncc3)[nH]c(=O)c2Cl)CCOCC1 [Compound 9]
28.8 | COc1cccc(N2CCN(c3nc(-c4ccncc4)[nH]c(=O)c3Cl)CC2)c1 [Compound 113]
2.57 | O=C(c1csnn1)N1CCC(c2nc(-c3ccncc3)[nH]c(=O)c2Cl)CC1 [Compound 59]
63.1 | CC(C)(C)C(=O)N1CCC(c2nc(-c3ccncc3)[nH]c(=O)c2Cl)CC1 [Compound 44]
56.2 | O=c1[nH]c(-c2ccncc2)nc(N2CC[C@@H](F)C2)c1Cl [Compound 133]
25.7 | CC(C)NC(=O)N1CCC(c2nc(-c3ccncc3)[nH]c(=O)c2Cl)CC1 [Compound 36, 4-[5-chloro-6-oxo-2-(4-pyridyl)-1-H-pyrimidin-4-yl]-N-isopropyl-piperidine-1-carboxamide]
67.6 | COC(=O)[C@@H]1CN(c2nc(-c3ccncc3)[nH]c(=O)c2Cl)CCN1 [Compound 163, methyl (2S)-4-[5-chloro-6-oxo-2-(4-pyridyl)-1H-pyrimidin-4-yl]piperazine-2-carboxylate hydrochloride]
5.25 | O=c1[nH]c(-c2ccncc2)nc(C2CCNC2)c1Cl (centres unmarked) [Compound 11]
1.41 | N#Cc1ccc(C(=O)N2CCC(c3nc(-c4ccncc4)[nH]c(=O)c3Cl)CC2)cc1 [Compound 46]
380 | NC(=O)[C@H]1CCCN1c1nc(-c2ccncc2)[nH]c(=O)c1Cl [Compound 118]
1.12 | O=C(c1ccnnc1)N1CCC(c2nc(-c3ccncc3)[nH]c(=O)c2Cl)CC1 [Compound 47]
5.13 | CC(=O)N1CCN(c2nc(-c3ccncc3)[nH]c(=O)c2Cl)CC1 [Compound 42]
3.24 | CC(C)Oc1ccc(C(=O)N2CCC(c3nc(-c4ccncc4)[nH]c(=O)c3Cl)CC2)cc1 [Compound 63]
1.45 | O=c1[nH]c(-c2ccncc2)nc(C2CCOCC2)c1Cl [Compound 6]
0.871 | Cc1nc(C)c(C(=O)N2CCC(c3nc(-c4ccncc4)[nH]c(=O)c3Cl)CC2)s1 [Compound 54]
5.89 | CN(c1ccc(C(=O)N2CCC(c3nc(-c4ccncc4)[nH]c(=O)c3Cl)CC2)cc1)S(C)(=O)=O [Compound 65]
53.7 | O=c1[nH]c(-c2ccncc2)nc(N2CCC3(COC3)C2)c1Cl [Compound 126]
60.3 | CC(C)(O)[C@@H]1CN(c2nc(-c3ccncc3)[nH]c(=O)c2Cl)CCN1 [Compound 407, 5-chloro-4-[(3S)-3-(1-hydroxy-1-methyl-ethyl)piperazin-1-yl]-2-(4-pyridyl)-1H-pyrimidin-6-one]
6.76 | O=c1[nH]c(-c2ccncc2)nc(C2CCOCC2)c1Br [Compound 3, 5-bromo-2-(4-pyridyl)-4-tetrahydropyran-4-yl-1H-pyrimidin-6-one]

IC50 [nM] | SMILES
6.31 | O=c1[nH]c(-c2ccncc2)nc(C2CCOCC2)c1F [Compound 5, 5-fluoro-2-(4-pyridyl)-4-tetrahydropyran-4-yl-1H-pyrimidin-6-one]
12.9 | O=c1[nH]c(-c2ccncc2)nc(C2CCCOC2)c1Cl (centres unmarked) [Compound 16]
347 | O=c1[nH]c(-c2ccncc2)nc(C2CNCCO2)c1Cl (centres unmarked) [Compound 20]
42.7 | NC(=O)C1CN(c2nc(-c3ccncc3)[nH]c(=O)c2Cl)CCO1 (centres unmarked) [Compound 96]
1.62 | Cc1cc(C(=O)N2CCC(c3nc(-c4ccncc4)[nH]c(=O)c3Cl)CC2)n(C)n1 [Compound 56]
85.1 | COCCC1CN(c2nc(-c3ccncc3)[nH]c(=O)c2Cl)CCO1 (centres unmarked) [Compound 99]
0.794 | O=c1[nH]c(-c2ccnc(F)c2)nc(C2(F)CCOCC2)c1Cl [Compound 18]
562 | CC(C)(C)OC(=O)N1CC=C(c2nc(-c3ccncc3)[nH]c(=O)c2Cl)CC1 [Compound 405, tert-butyl 4-[5-chloro-6-oxo-2-(4-pyridyl)-1H-pyrimidin-4-yl]-3,6-dihydro-2H-pyridine-1-carboxylate]
851 | O=c1[nH]c(-c2ccncc2)nc(C2CCOCC2)c1C(F)(F)F [Compound 406, 2-(4-pyridyl)-4-tetrahydropyran-4-yl-5-(trifluoromethyl)-1H-pyrimidin-6-one]
12.9 | O=C1CN(c2nc(-c3ccncc3)[nH]c(=O)c2Cl)CCN1 [Compound 33]
2450 | O=c1[nH]c(-c2ccncc2)nc(C2CCCN2)c1Cl (centres unmarked) [Compound 7]
74.1 | CC(C)(C)OC(=O)N1CCC(F)(c2nc(-c3ccncc3)[nH]c(=O)c2Cl)CC1 [Compound 22]
2.34 | O=c1[nH]c(-c2ccnc(F)c2)nc(C2CCOCC2)c1F [Compound 17]
174 | CC1CN(c2nc(-c3ccncc3)[nH]c(=O)c2Cl)CC(C)N1 (centres unmarked) [Compound 108]
4.27 | O=c1[nH]c(-c2ccncc2)nc(N2CCNC(c3cccc(O)c3)C2)c1Cl (centres unmarked) [Compound 178]
145 | O=C1CN(c2nc(-c3ccncc3)[nH]c(=O)c2Cl)CCCN1 [Compound 141]
6.76 | O=c1[nH]c(-c2ccncc2)nc(N2CCCCC2)c1Cl [Compound 26, 5-chloro-4-(1-piperidyl)-2-(4-pyridyl)-1H-pyrimidin-6-one]
2.57 | N#Cc1cccc(C(=O)N2CCC(c3nc(-c4ccncc4)[nH]c(=O)c3Cl)CC2)c1 [Compound 48]
3.16 | CS(=O)(=O)N1CCN(c2nc(-c3ccncc3)[nH]c(=O)c2Cl)CC1 [Compound 43]
3.55 | Cc1cc(C(=O)N2CCC(c3nc(-c4ccncc4)[nH]c(=O)c3Cl)CC2)no1 [Compound 69]
52.5 | O=c1[nH]c(-c2ccncc2)nc(N2CCC(Cc3ccccc3)CC2)c1Cl [Compound 102]
132 | O=c1[nH]c(-c2ccncc2)nc(N2CCCC2)c1Cl [Compound 30]
3.09 | O=C(c1cccc(O)c1)N1CCC(c2nc(-c3ccncc3)[nH]c(=O)c2Cl)CC1 [Compound 50]
8.13 | CC(=O)N1CCC(c2nc(-c3ccncc3)[nH]c(=O)c2Cl)CC1 [Compound 40]
1.74 | O=c1[nH]c(-c2ccncc2)nc(C2CCNCC2)c1Cl [Compound 2, 5-Chloro-6-piperidin-4-yl-2-pyridin-4-yl-3H-pyrimidin-4-one]
9.12 | CC(N)C(=O)N1CCC(c2nc(-c3ccncc3)[nH]c(=O)c2Cl)CC1 (centres unmarked) [Compound 75]
